Test results as given in patent publication US8633005B2, “Isocyclomaltooligosaccharide(s), isocyclomaltooligosaccharide-forming enzyme, their preparation and uses” (Hayashibara Co., Ltd., priority 2004, dated 2014).
Like-named read-outs stand apart in the source and are kept apart here.

Key:
salivary α-amylase = biological target: T1, salivary α-amylase (Homo sapiens, UniProt P0DUB6); test: Digestibility of ICM by salivary α-amylase; settings: reducing saccharides/total saccharides x100
T1 sequence (P0DUB6 16-511): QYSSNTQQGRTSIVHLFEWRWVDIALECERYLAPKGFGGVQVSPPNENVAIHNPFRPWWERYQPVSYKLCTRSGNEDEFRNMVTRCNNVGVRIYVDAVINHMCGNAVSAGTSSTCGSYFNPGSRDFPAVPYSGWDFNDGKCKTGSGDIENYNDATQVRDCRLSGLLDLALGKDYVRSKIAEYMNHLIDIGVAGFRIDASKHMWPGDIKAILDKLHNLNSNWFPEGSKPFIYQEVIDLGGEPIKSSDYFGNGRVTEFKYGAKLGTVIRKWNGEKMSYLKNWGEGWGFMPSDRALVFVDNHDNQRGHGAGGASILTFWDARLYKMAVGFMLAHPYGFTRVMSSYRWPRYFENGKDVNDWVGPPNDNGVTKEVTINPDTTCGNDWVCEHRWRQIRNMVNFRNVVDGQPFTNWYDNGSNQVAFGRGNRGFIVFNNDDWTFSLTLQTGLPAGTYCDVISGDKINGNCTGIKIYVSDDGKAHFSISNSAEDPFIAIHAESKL
Source text: (§1) 43, 23-29 (1990), the digestibility of ICM by salivary α-amylase, artificial gastric juice, pancreas amylase, and small intestinal enzymes were investigated using ICG5, used in Experiment 15. […] In Table 18, the digestion (%) means a value calculated by the formula: Digestion (%)=(The amount of reducing saccharides/The amount of the total saccharides)×100 , in respective reaction described above.

small intestinal enzymes [1] = test: Digestibility of ICM by small intestinal enzymes; settings: reducing saccharides/total saccharides x100
Source text: as §1

[2] = Digestibility of ICM by artificial gastric juice; settings: reducing saccharides/total saccharides x100
Source text: as §1

pancreas α-amylase = test: Digestibility of ICM by pancreas α-amylase; settings: reducing saccharides/total saccharides x100
Source text: as §1

ICM-forming enzyme = test: Action on various saccharides (substrate specificity, TLC); format: biochemical, Bacillus circulans AM7; parameters: key: −: Not changed; +: Spot of substrate is slightly decreased and the formation of ICM are detected; ++: Spot of substrate is markedly decreased and the formation of ICM are detected; +++: Spot of substrate is virtually disappeared and the formation of ICM are detected; settings: substrate 2% (w/v), one unit/g-substrate enzyme, 40° C., pH 6.0, 24 hours
Protocol: Substrate specificity of ICM-forming enzyme was investigated using various saccharides as substrates. Substrate solutions were prepared by dissolving maltose, maltotriose, maltotetraose, maltopentaose, maltohexaose, maltoheptaose, neotrehalose, trehalose, kojibiose, nigerose, isomaltose, isomaltotriose, panose, isopanose, maltitol, maltotriitol, α-, β-, or γ-cyclodextrin, amylose, soluble starch, glycogen, pullulan or dextran in water. Each substrate solution was admixed with acetate buffer (pH 6.0) and CaCl2 to give final concentrations of 20 mM and 1 mM, respectively. […] Substrate concentration was set to 2% (w/v) and followed by the enzyme reaction at 40° C. and pH 6.0 for 24 hours. To examine the saccharides in each mixture before and after the reaction, saccharides were separated by silica gel thin-layer chromatography (hereinafter, simply abbreviated as “TLC”) using “KIESELGEL 60”, a TLC aluminum plate (10×20 cm) and a solvent (n-butanol/pyridine/water, volume ratio of 6:4:1) and two-times ascending method. The separated saccharides on the plate were detected by visualizing the spots with sulfate-methanol method. By the above TLC analyses, the enzymatic action and the degree of the reaction of ICM-forming enzyme on each substrate were confirmed.

[3] = Clathrating action of ICM (amount of compound clathrated, gas-chromatography); format: physicochemical; settings: 3-folds molar amount
Protocol: ICG5 used in Experiment 15, was dissolved in deionized water to make into an aqueous solution containing 20% (w/v) of ICG5. Twenty milliliters of the aqueous solution was admixed with 3-folds amount, on a molar basis to ICG5, of either of four kinds of short chain alcohols, i.e., methanol, ethanol, propanol, and butanol; four kinds of short chain fatty acids, i.e., acetic acid, propionic acid, n-butyric acid, and n-valeic acid; and four kinds of aromatic compounds, i.e., benzyl alcohol, phenethyl alcohol, 4-phenyl-1-propanol, and o-cresol; and then stirred the mixture to homogeneity for allowing ICG5 to clathrate the compound. Successively, each solution was filtrated, and the resulting filtrate was freeze-dried to remove unclathrated compound. In order to measure the amount of compound clathrated in the freeze-dried product, the amount of each compound in each freeze-dried product was determined by gas-chromatography. Alpha-CD was used as a control and subjected to the similar test.

[4] = Amino-carbonyl reaction with polypeptone; format: physicochemical; settings: with 5% (w/v) polypeptone, 120° C., blank subtracted
Protocol: ICG5 used in Experiment 15 and commercially available polypeptone, commercialized by Nihon Pharmaceutical Co., Ltd., Tokyo, Japan, were dissolved in deionized water to make into an aqueous solution containing […] and 5% (w/v) of polypeptone. As a control, an aqueous solution containing α-CD and polypeptone was prepared in the same manner using α-CD in place of ICG5. Four milliliters each of the solution was put in a glass tube, sealed and then heated at 120° C. for 30, 60, or 90 min. After cooling the solutions in ambient temperature, the degrees of coloring of the solutions were measured to estimate the degree of amino-carbonyl reaction. As a blank test, a solution containing polypeptone only was heated in the same manner. The degree of coloring was defined as an absorbance at 480 nm using a 1 cm-cell after subtracting the absorbance of the blank test.

small intestinal enzymes [5] = test system: small intestinal enzymes
Source text: as §1

[6] = Amino-carbonyl reaction with glycine; format: physicochemical; settings: 5% (w/v) saccharide + 1% (w/v) glycine, pH 7.0, 120° C., blank subtracted
Protocol: ICG5, used in Experiment 15 and commercially available super high-grade glycine were dissolved in deionized water, and then admixed with phosphate buffer to make into an aqueous ICG5 solution containing 5% (w/v) of ICG5 and 1% (w/v) glycine, adjusted to pH 7.0. As a control, an aqueous α-cyclodextrin (α-CD) solution containing α-CD and glycine was prepared in the same manner using α-CD in place of ICG5. Four milliliters each of the solution was put in a glass tube, sealed and then heated at 120° C. for 30, 60, or 90 min. After cooling the solutions in ambient temperature, the degrees of coloring of the solutions were measured to estimate the degree of amino-carbonyl reaction. As a blank test, a solution containing glycine only was heated in the same manner. The degree of coloring was defined as an absorbance at 480 nm using a 1 cm-cell after subtracting the absorbance of the blank test.

Q: With `OC[C@H]1O[C@@H]2O[C@H]3[C@H](O)[C@@H](O)[C@@H](O[C@H]4[C@H](O)[C@@H](O)[C@@H](O[C@H]5[C@H](O)[C@@H](O)[C@@H](O[C@H]6[C@H](O)[C@@H](O)[C@@H](O[C@H]7[C@H](O)[C@@H](O)[C@@H](O[C@H]8[C@H](O)[C@@H](O)[C@@H](O[C@H]9[C@H](O)[C@@H](O)[C@@H](O[C@H]1[C@H](O)[C@H]2O)O[C@@H]9CO)O[C@@H]8CO)O[C@@H]7CO)O[C@@H]6CO)O[C@@H]5CO)O[C@@H]4CO)O[C@@H]3CO` [γ-CD, γ-cyclodextrin] as the compound, how does the Digestion (salivary α-amylase) read?
A: The Digestion was 0.1%.

Q: And the Digestion (small intestinal enzymes [1])?
A: The Digestion was 57.4%.

Q: What about the Digestion [2] of the same compound?
A: Its Digestion is 0%.

Q: What about the Digestion (pancreas α-amylase) of the same compound?
A: The Digestion was 5.4%.

Q: And the Action (ICM-forming enzyme)?
A: The Action was “−”.

Q: Which results are given for `OC[C@H]1O[C@@H]2O[C@H]3[C@H](O)[C@@H](O)[C@@H](O[C@H]4[C@H](O)[C@@H](O)[C@@H](O[C@H]5[C@H](O)[C@@H](O)[C@@H](O[C@H]6[C@H](O)[C@@H](O)[C@@H](O[C@H]7[C@H](O)[C@@H](O)[C@@H](O[C@H]8[C@H](O)[C@@H](O)[C@@H](O[C@H]1[C@H](O)[C@H]2O)O[C@@H]8CO)O[C@@H]7CO)O[C@@H]6CO)O[C@@H]5CO)O[C@@H]4CO)O[C@@H]3CO` [β-CD, β-cyclodextrin]?
A: Digestion (salivary α-amylase): 0%; Digestion (small intestinal enzymes [1]): 1.1%; Digestion [2]: 0%; Digestion (pancreas α-amylase): 0.2%; Action (ICM-forming enzyme): −

Q: Which Digestion (salivary α-amylase) does the source give for `OC[C@H]1O[C@@H]2O[C@H]3[C@H](O)[C@@H](O)[C@@H](O[C@H]4[C@H](O)[C@@H](O)[C@@H](O[C@H]5[C@H](O)[C@@H](O)[C@@H](O[C@H]6[C@H](O)[C@@H](O)[C@@H](O[C@H]7[C@H](O)[C@@H](O)[C@@H](O[C@H]1[C@H](O)[C@H]2O)O[C@@H]7CO)O[C@@H]6CO)O[C@@H]5CO)O[C@@H]4CO)O[C@@H]3CO` [α-CD, α-cyclodextrin] here?
A: Its Digestion is 0%.

Q: And the “Amount of compound clathrated” value ([3]; objective compound: 4-Phenyl 1-propanol (aromatic compound))?
A: The value was 171.5 mg/g-freeze-dried product.

Q: What about the “Amount of compound clathrated” value ([3]; objective compound: Acetic acid (short chain fatty acid)) of the same compound?
A: The value was 15.1 mg/g-freeze-dried product.

Q: What about the “Amount of compound clathrated” value ([3]; objective compound: Benzyl alcohol (aromatic compound)) of the same compound?
A: The value was 165.7 mg/g-freeze-dried product.

Q: What about the “Amount of compound clathrated” value ([3]; objective compound: Butanol (short chain alcohol)) of the same compound?
A: Its value is 79.5 mg/g-freeze-dried product.

Q: And the “Amount of compound clathrated” value ([3]; objective compound: Ethanol (short chain alcohol))?
A: Its value is 36.7 mg/g-freeze-dried product.

Q: And the “Amount of compound clathrated” value ([3]; objective compound: Methanol (short chain alcohol))?
A: Its value is 16.7 mg/g-freeze-dried product.

Q: What about the “Amount of compound clathrated” value ([3]; objective compound: Phenethyl alcohol (aromatic compound)) of the same compound?
A: Its value is 144.4 mg/g-freeze-dried product.

Q: What about the “Amount of compound clathrated” value ([3]; objective compound: Propanol (short chain alcohol)) of the same compound?
A: The value was 66.8 mg/g-freeze-dried product.

Q: And the “Amount of compound clathrated” value ([3]; objective compound: Propionic acid (short chain fatty acid))?
A: Its value is 16.6 mg/g-freeze-dried product.

Q: What about the “Amount of compound clathrated” value ([3]; objective compound: n-Butyric acid (short chain fatty acid)) of the same compound?
A: Its value is 13.2 mg/g-freeze-dried product.

Q: What about the “Amount of compound clathrated” value ([3]; objective compound: n-Valeic acid (short chain fatty acid)) of the same compound?
A: Its value is 45.0 mg/g-freeze-dried product.

Q: And the “Amount of compound clathrated” value ([3]; objective compound: o-Cresol (aromatic compound))?
A: The value was 49.5 mg/g-freeze-dried product.

Q: What about the Degree of coloring ([4]; heating time 0 min) of the same compound?
A: The Degree of coloring was 0.01 A480 nm.

Q: What about the Degree of coloring ([4]; heating time 30 min) of the same compound?
A: Its Degree of coloring is 0.03 A480 nm.

Q: What about the Degree of coloring ([4]; heating time 60 min) of the same compound?
A: Its Degree of coloring is 0.04 A480 nm.

Q: What about the Degree of coloring ([4]; heating time 90 min) of the same compound?
A: Its Degree of coloring is 0.06 A480 nm.

Q: What about the Digestion (pancreas α-amylase) of the same compound?
A: The Digestion was 0%.

Q: And the Digestion (small intestinal enzymes [5])?
A: The Digestion was 0.2%.

Q: What about the Degree of coloring ([6]; heating time 0 min) of the same compound?
A: The Degree of coloring was 0.02 A480 nm.

Q: And the Degree of coloring ([6]; heating time 30 min)?
A: Its Degree of coloring is 0.02 A480 nm.

Q: What about the Degree of coloring ([6]; heating time 60 min) of the same compound?
A: Its Degree of coloring is 0.03 A480 nm.

Q: And the Degree of coloring ([6]; heating time 90 min)?
A: Its Degree of coloring is 0.02 A480 nm.

Q: What about the Action (ICM-forming enzyme) of the same compound?
A: Its Action is “−”.
